Patent publication US12110276B2 (Genentech, Inc., priority 2021, dated 2024)

Columns and labels:
TEAD4 = TEAD4 (Homo sapiens (Human), UniProt Q15561); test: TR-FRET lipid pocket probe competition assay (Lipid HTRF), TEAD4; format: binding; conditions: 4 hours pre-incubation; read-out: Lipid HTRF TEAD4 IC50;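 further: His-tagged TEAD4 with biotinylated lipid-pocket probe, read by Europium anti-His and XL665 streptavidin, where probe displacement lowers the TR-FRET signal, IC50 from a four-parameter fit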
TEAD4, sequence (Q15561 whole entry, species assumed): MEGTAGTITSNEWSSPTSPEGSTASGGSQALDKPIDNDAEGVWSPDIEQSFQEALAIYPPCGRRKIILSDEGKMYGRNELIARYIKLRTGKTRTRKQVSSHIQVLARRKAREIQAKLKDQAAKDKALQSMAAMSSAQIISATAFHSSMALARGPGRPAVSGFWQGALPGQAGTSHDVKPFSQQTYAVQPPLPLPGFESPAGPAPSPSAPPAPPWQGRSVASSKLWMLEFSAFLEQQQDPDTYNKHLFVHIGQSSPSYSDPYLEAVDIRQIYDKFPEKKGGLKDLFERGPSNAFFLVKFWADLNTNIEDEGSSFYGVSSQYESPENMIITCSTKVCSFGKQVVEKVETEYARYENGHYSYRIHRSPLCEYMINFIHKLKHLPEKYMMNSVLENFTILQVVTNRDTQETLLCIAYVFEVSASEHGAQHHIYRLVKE

TEAD3 = TEAD3 (Homo sapiens (Human), UniProt Q99594); test: TR-FRET lipid pocket probe competition assay (Lipid HTRF), TEAD3; format: binding; conditions: 4 hours pre-incubation; read-out: Lipid HTRF TEAD3 IC50
TEAD3, sequence (Q99594 whole entry, species assumed): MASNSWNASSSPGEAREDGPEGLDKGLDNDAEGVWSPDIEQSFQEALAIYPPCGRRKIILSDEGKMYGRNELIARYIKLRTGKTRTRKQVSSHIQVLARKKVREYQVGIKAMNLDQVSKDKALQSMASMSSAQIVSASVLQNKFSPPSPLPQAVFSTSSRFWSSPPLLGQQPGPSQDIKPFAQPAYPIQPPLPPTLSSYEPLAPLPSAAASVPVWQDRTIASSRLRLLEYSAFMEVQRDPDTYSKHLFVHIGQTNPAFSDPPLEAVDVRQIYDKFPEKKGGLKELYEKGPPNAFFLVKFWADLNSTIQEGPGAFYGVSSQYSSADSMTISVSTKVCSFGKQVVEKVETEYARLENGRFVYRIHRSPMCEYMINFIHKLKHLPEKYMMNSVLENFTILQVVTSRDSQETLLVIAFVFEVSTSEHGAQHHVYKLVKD

TEAD2 = TEAD2 (Homo sapiens (Human), UniProt Q15562);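 further: TR-FRET competition assay with His-tagged TEAD protein and a biotinylated lipid pocket probe, compound pre-incubated 30 min or 4 h at room temperature, displacement lowers signal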
TEAD2, sequence (Q15562 whole entry, species assumed): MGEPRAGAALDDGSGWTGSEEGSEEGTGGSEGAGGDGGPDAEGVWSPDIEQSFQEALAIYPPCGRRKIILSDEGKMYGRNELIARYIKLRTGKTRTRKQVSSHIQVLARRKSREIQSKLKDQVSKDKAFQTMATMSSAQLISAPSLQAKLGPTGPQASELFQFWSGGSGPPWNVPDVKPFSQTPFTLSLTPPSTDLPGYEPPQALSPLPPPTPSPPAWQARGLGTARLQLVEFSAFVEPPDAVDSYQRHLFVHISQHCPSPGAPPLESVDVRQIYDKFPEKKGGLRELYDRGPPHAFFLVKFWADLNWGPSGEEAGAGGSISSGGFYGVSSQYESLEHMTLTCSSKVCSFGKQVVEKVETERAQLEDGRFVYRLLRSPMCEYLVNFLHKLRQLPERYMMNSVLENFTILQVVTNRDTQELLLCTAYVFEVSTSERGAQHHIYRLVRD

TEAD1 = TEAD1 (Homo sapiens (Human), UniProt P28347); test: TR-FRET lipid pocket probe competition assay (Lipid HTRF), TEAD1; format: binding; conditions: 4 hours pre-incubation; read-out: Lipid HTRF TEAD1 IC50;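 further: His-tagged TEAD1 with biotinylated probe, detected via Europium anti-His and XL665 streptavidin, probe displacement lowers TR-FRET signal, IC50 from four-parameter nonlinear fit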
TEAD1, sequence (P28347 whole entry, species assumed): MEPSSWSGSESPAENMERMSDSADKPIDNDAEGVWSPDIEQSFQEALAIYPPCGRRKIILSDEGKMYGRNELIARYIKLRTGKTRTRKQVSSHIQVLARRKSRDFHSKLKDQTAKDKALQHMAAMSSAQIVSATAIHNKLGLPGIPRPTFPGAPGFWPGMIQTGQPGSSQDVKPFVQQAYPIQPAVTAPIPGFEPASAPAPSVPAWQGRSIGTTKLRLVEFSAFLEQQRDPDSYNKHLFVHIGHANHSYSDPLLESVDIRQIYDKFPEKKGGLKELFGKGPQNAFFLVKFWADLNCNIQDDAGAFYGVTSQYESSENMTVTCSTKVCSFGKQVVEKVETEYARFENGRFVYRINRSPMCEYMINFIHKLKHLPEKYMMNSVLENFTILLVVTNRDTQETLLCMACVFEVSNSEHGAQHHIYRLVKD
Protocol: His-tagged TEAD proteins are pre-incubated with TEAD project compounds for 30 minutes or 4 hours at room temperature. Biotinylated lipid pocket probes are then added to the TEAD/Compound mixture and incubated for 60 minutes at room temperature. The lipid pocket probe competes with the test compound for the TEAD lipid pocket until equilibrium is reached. After 60 minutes, Europium labelled anti-His (Perkin Elmer #AD0110) and XL665 labelled streptavidin (CIS Bio 610SAXAC) are added to the TEAD/test compound/lipid pocket mixture and incubated for 30 minutes or 4 hours. […] If a TEAD lipid pocket binder such as binds and displaces the lipid pocket probe, the disruption of the TEAD:probe interaction results in a decrease in TR-FRET signal. The potency of compounds as TEAD lipid pocket binders is determined by IC50 value generated using a non-linear 4 parameter curve fit.

IC50 (TEAD4) [µM]	IC50 (TEAD3) [µM]	IC50 (TEAD2) [µM]	IC50 (TEAD1) [µM]	SMILES
0.0285	41	0.066	0.044	C=CC(=O)NCc1nn(-c2ccc(OC(F)(F)F)cc2)c2nccc(N3CCC(O)CC3)c12 [Compound 91, N-((4-(4-hydroxypiperidin-1-yl)-1-(4-(trifluoromethoxy)phenyl)-1H-pyrazolo[3,4-b]pyridin-3-yl)methyl)acrylamide]
0.052	13	0.78	0.11	C=CC(=O)NCc1nn(-c2ccc(OC(F)(F)F)cc2)c2nccc(N3CC(N)C3)c12 [Compound 92, N-((4-(3-aminoazetidin-1-yl)-1-(4-(trifluoromethoxy)phenyl)-1H-pyrazolo[3,4-b]pyridin-3-yl)methyl)acrylamide]
0.0043	0.017	0.008	0.019	C=C(Cl)C(=O)N1CC(c2nn(-c3ccc(OC(F)(F)F)cc3)c3nccc([C@@H](O)CO)c23)C1 [Compound 110, (R)-2-chloro-1-(3-(4-(1,2-dihydroxyethyl)-1-(4-(trifluoromethoxy)phenyl)-1H-pyrazolo[3,4-b]pyridin-3-yl)azetidin-1-yl)prop-2-en-1-one]
0.0045	0.02	0.0065	0.019	C=CC(=O)N1CC(c2nn(-c3ccc(OC(F)(F)F)cc3)c3nccc([C@H](O)CO)c23)C1 [Compound 113, (S)-1-(3-(4-(1,2-Dihydroxyethyl)-1-(4-(trifluoromethoxy)phenyl)-1H-pyrazolo[3,4-b]pyridin-3-yl)azetidin-1-yl)prop-2-en-1-one]
0.0029	0.016	0.0046	0.014	C=CC(=O)N1CC(c2nn(-c3ccc(OC(F)(F)F)cc3)c3nccc([C@@H](O)CO)c23)C1 [Compound 114, (R)-1-(3-(4-(1,2-Dihydroxyethyl)-1-(4-(trifluoromethoxy)phenyl)-1H-pyrazolo[3,4-b]pyridin-3-yl)azetidin-1-yl)prop-2-en-1-one]
0.0043	50	0.097	0.016	C=CC(=O)NCc1nn(-c2ccc(OC(F)(F)F)cc2)c2nccc(N3CC(OC)C3)c12 [Compound 118, N-((4-(3-methoxyazetidin-1-yl)-1-(4-(trifluoromethoxy)phenyl)-1H-pyrazolo[3,4-b]pyridin-3-yl)methyl)acrylamide]
0.11	0.55	0.25	0.16	C=CC(=O)NCc1nn(-c2ccc(OC(F)(F)F)cc2)c2nccc(-c3c[nH]cn3)c12 [Compound 119, N-((4-(1H-Imidazol-4-yl)-1-(4-(trifluoromethoxy)phenyl)-1H-pyrazolo[3,4-b]pyridin-3-yl)methyl)acrylamide]
0.039	21	2	0.19	C=CC(=O)NCc1nn(-c2ccc(OC(F)(F)F)cc2)c2nccc(N3CC(NC)C3)c12 [Compound 122, N-((4-(3-(methylamino)azetidin-1-yl)-1-(4-(trifluoromethoxy)phenyl)-1H-pyrazolo[3,4-b]pyridin-3-yl)methyl)acrylamide]
0.0099	0.93	0.2	0.041	C=CC(=O)NCc1nn(-c2ccc(OC(F)(F)F)cc2)c2nccc(N3CC(O)(CO)C3)c12 [Compound 124, N-((4-(3-hydroxy-3-(hydroxymethyl)azetidin-1-yl)-1-(4-(trifluoromethoxy)phenyl)-1H-pyrazolo[3,4-b]pyridin-3-yl)methyl)acrylamide]

Further lines, the compound ahead of its results:

SMILES	IC50 (TEAD4) [µM]	IC50 (TEAD3) [µM]	IC50 (TEAD2) [µM]	IC50 (TEAD1) [µM]
C=C(F)C(=O)N1CC(c2nn(-c3ccc(OC(F)(F)F)cc3)c3nccc(N4CC[C@H](O)C4=O)c23)C1 [Compound 82, (S)-1-(3-(1-(2-fluoroacryloyl)azetidin-3-yl)-1-(4-(trifluoromethoxy)phenyl)-1H-pyrazolo[3,4-b]pyridin-4-yl)-3-hydroxypyrrolidin-2-one]	0.0048	0.27	0.39	0.031
C=CC(=O)NCc1nn(-c2ccc(OC(F)(F)F)cc2)c2nccc(N3CC(F)C3)c12 [Compound 84, N-((4-(3-Fluoroazetidin-1-yl)-1-(4-(trifluoromethoxy)phenyl)-1H-pyrazolo[3,4-b]pyridin-3-yl)methyl)acrylamide]	0.0063	50	0.089	0.023
C=CC(=O)NCc1nn(-c2ccc(OC(F)(F)F)cc2)c2nccc(N[C@H]3C[C@H](O)C3)c12 [Compound 85, N-((4-((3-hydroxycyclobutyl)amino)-1-(4-(trifluoromethoxy)phenyl)-1H-pyrazolo[3,4-b]pyridin-3-yl)methyl)acrylamide]	0.17	15	0.48	0.14
C=CC(=O)NCc1nn(-c2ccc(S(F)(F)(F)(F)F)cc2)c2nccc(CO)c12 [Compound 87, N-((4-(Hydroxymethyl)-1-(4-(pentafluoro-λ^6-sulfanyl)phenyl)-1H-pyrazolo[3,4-b]pyridin-3-yl)methyl)acrylamide]	0.033	0.52	0.19	0.023
C=CC(=O)N(C)Cc1nn(-c2ccc(OC(F)(F)F)cc2)c2nccc([C@@H](O)CO)c12 [Compound 93, (R)-N-((4-(1,2-dihydroxyethyl)-1-(4-(trifluoromethoxy)phenyl)-1H-pyrazolo[3,4-b]pyridin-3-yl)methyl)-N-methylacrylamide]	0.022	0.57	0.71	0.17
Cc1ccnc2c1c(C1CN(C(=O)/C=C/CO)C1)nn2-c1ccc(OC(F)(F)F)cc1 [Compound 96, (E)-4-Hydroxy-1-(3-(4-methyl-1-(4-(trifluoromethoxy)phenyl)-1H-pyrazolo[3,4-b]pyridin-3-yl)azetidin-1-yl)but-2-en-1-one]	0.0037	0.038	0.03	0.01
C[C@H](O)/C=C/C(=O)N1CC(c2nn(-c3ccc(OC(F)(F)F)cc3)c3nccc(CO)c23)C1 [Compound 97, (S,E)-4-hydroxy-1-(3-(4-(hydroxymethyl)-1-(4-(trifluoromethoxy)phenyl)-1H-pyrazolo[3,4-b]pyridin-3-yl)azetidin-1-yl)pent-2-en-1-one]	0.058	0.57	0.52	0.078
O=C(/C=C\Cl)NCc1nn(-c2ccc(OC(F)(F)F)cc2)c2nccc(CO)c12 [Compound 99, (Z)-3-Chloro-N-((4-(hydroxymethyl)-1-(4-(trifluoromethoxy)phenyl)-1H-pyrazolo[3,4-b]pyridin-3-yl)methyl)acrylamide]	0.005	0.087	0.028	0.0033
O=C(/C=C/Cl)N1CC(c2nn(-c3ccc(OC(F)(F)F)cc3)c3nccc(CO)c23)C1 [Compound 102, (E)-3-Chloro-1-(3-(4-(hydroxymethyl)-1-(4-(trifluoromethoxy)phenyl)-1H-pyrazolo[3,4-b]pyridin-3-yl)azetidin-1-yl)prop-2-en-1-one]	0.0033	0.0088	0.0035	0.01
O=C(/C=C/CO)N1CC(c2nn(-c3ccc(OC(F)(F)F)cc3)c3ccnc(N4CC(O)C4)c23)C1 [Compound 103, (E)-4-hydroxy-1-(3-(4-(3-hydroxyazetidin-1-yl)-1-(4-(trifluoromethoxy)phenyl)-1H-pyrazolo[4,3-c]pyridin-3-yl)azetidin-1-yl)but-2-en-1-one]	0.0825	50	3.35	0.18
C=CC(=O)NCc1nn(-c2ccc(OC(F)(F)F)cc2)c2nccc(CN(C)C)c12 [Compound 105, N-((4-((dimethylamino)methyl)-1-(4-(trifluoromethoxy)phenyl)-1H-pyrazolo[3,4-b]pyridin-3-yl)methyl)acrylamide]	0.45	50	0.62	1
C=CC(=O)NCc1nn(-c2ccc(OC(F)(F)F)cc2)c2nccc(N3CC(O)C3)c12 [Compound 106, N-((4-(3-hydroxyazetidin-1-yl)-1-(4-(trifluoromethoxy)phenyl)-1H-pyrazolo[3,4-b]pyridin-3-yl)methyl)acrylamide]	0.00675	0.935	0.061	0.0155
C=CC(=O)NCc1nn(-c2ccc(OC(F)(F)F)cc2)c2nccc(N3CC(N(C)C)C3)c12 [Compound 107, N-((4-(3-(dimethylamino)azetidin-1-yl)-1-(4-(trifluoromethoxy)phenyl)-1H-pyrazolo[3,4-b]pyridin-3-yl)methyl)acrylamide]	0.036	50	0.96	0.28
C=C(Cl)C(=O)N1CC(c2nn(-c3ccc(OC(F)(F)F)cc3)c3nccc([C@H](O)CO)c23)C1 [Compound 109, (S)-2-Chloro-1-(3-(4-(1,2-dihydroxyethyl)-1-(4-(trifluoromethoxy)phenyl)-1H-pyrazolo[3,4-b]pyridin-3-yl)azetidin-1-yl)prop-2-en-1-one]	0.00515	0.018	0.0078	0.023
C=CC(=O)NCc1nn(-c2ccc(OC(F)(F)F)cc2)c2nccc(N3CC(NC(C)=O)C3)c12 [Compound 116, N-((4-(3-acetamidoazetidin-1-yl)-1-(4-(trifluoromethoxy)phenyl)-1H-pyrazolo[3,4-b]pyridin-3-yl)methyl)acrylamide]	0.011	14	0.075	0.027
C/C=C/C(=O)N1CC(c2nn(-c3ccc(OC(F)(F)F)cc3)c3nccc(CO)c23)C1 [Compound 120, (E)-1-(3-(4-(Hydroxymethyl)-1-(4-(trifluoromethoxy)phenyl)-1H-pyrazolo[3,4-b]pyridin-3-yl)azetidin-1-yl)but-2-en-1-one]	0.055	0.27	0.16	0.027
